Results as given in ChEMBL document CHEMBL4152255, “Functionalized spirooxindole-indolizine hybrids: Stereoselective green synthesis and evaluation of anti-inflammatory effect involving TNF-α and nitrite inhibition” (2018).

Columns and labels:
Type in all cases: functional
Rattus norvegicus [1] = test: Anti-inflammatory activity against carrageenan-induced paw oedema in Wistar albino rat assessed as hind paw thickness at 50 mg/kg, po pretreated for 1 hr followed by carrageenan challenge measured immediately by caliper method (reference value: 3.58 +/- 0.34 millimeter)
Rattus norvegicus [2] = test: Anti-inflammatory activity against carrageenan-induced paw oedema in Wistar albino rat assessed as hind paw thickness at 50 mg/kg, po pretreated for 1 hr followed by carrageenan challenge measured after 5 hrs by caliper method (reference value: 8.37 +/- 0.64 millimeter)
Rattus norvegicus [3] = test: Anti-inflammatory activity against carrageenan-induced paw oedema in Wistar albino rat assessed as hind paw thickness at 50 mg/kg, po pretreated for 1 hr followed by carrageenan challenge measured after 3 hrs by caliper method (reference value: 8.45 +/- 0.64 millimeter)
Rattus norvegicus [4] = test: Anti-inflammatory activity against carrageenan-induced paw oedema in Wistar albino rat assessed as reduction in PGE2 level at 50 mg/kg, po pretreated for 1 hr followed by carrageenan challenge by ELISA relative to control; parameters: scale not given: the % may be the effect or the level left
Mus musculus [5] = test: Antiinflammatory activity in mouse assessed as inhibition of croton oil-induced ear edema at 1 mg/ear administered topically pretreated for 1 hr followed by croton oil addition and measured after 4 hrs relative to control; parameters: scale not given: the % may be the effect or the level left
Rattus norvegicus [6] = test: Anti-inflammatory activity against carrageenan-induced paw oedema in Wistar albino rat assessed as reduction in hind paw thickness at 50 mg/kg, po pretreated for 1 hr followed by carrageenan challenge measured after 3 hrs by caliper method relative to control; parameters: scale not given: the % may be the effect or the level left
Rattus norvegicus [7] = test: Anti-inflammatory activity against carrageenan-induced paw oedema in Wistar albino rat assessed as reduction in TNFalpha level at 50 mg/kg, po pretreated for 1 hr followed by carrageenan challenge by ELISA relative to control; parameters: scale not given: the % may be the effect or the level left
Rattus norvegicus [8] = test: Anti-inflammatory activity against carrageenan-induced paw oedema in Wistar albino rat assessed as reduction in nitrite level at 50 mg/kg, po pretreated for 1 hr followed by carrageenan challenge by Griess assay relative to control; parameters: scale not given: the % may be the effect or the level left
Rattus norvegicus [9] = test: Anti-inflammatory activity against carrageenan-induced paw oedema in Wistar albino rat assessed as reduction in hind paw thickness at 50 mg/kg, po pretreated for 1 hr followed by carrageenan challenge measured after 5 hrs by caliper method relative to control; parameters: scale not given: the % may be the effect or the level left
Rattus norvegicus [10] = test: Anti-inflammatory activity in Wistar albino rat assessed as inhibition of cotton pellet-induced granuloma at 50 mg/kg administered once daily for 7 days measured on day 8 relative to control; parameters: scale not given: the % may be the effect or the level left
Rattus norvegicus [11] = test: Anti-inflammatory activity in Wistar albino rat assessed as inhibition of cotton pellet-induced granuloma at 10 mg/kg administered once daily for 7 days measured on day 8 relative to control; parameters: scale not given: the % may be the effect or the level left
Rattus norvegicus [12] = test: Anti-inflammatory activity against carrageenan-induced paw oedema in Wistar albino rat assessed as reduction in nitrite level at 10 mg/kg, po pretreated for 1 hr followed by carrageenan challenge by Griess assay relative to control; parameters: scale not given: the % may be the effect or the level left
Rattus norvegicus [13] = test: Anti-inflammatory activity against carrageenan-induced paw oedema in Wistar albino rat assessed as hind paw thickness at 10 mg/kg, po pretreated for 1 hr followed by carrageenan challenge measured immediately by caliper method (reference value: 3.58 +/- 0.34 millimeter)
Rattus norvegicus [14] = test: Anti-inflammatory activity against carrageenan-induced paw oedema in Wistar albino rat assessed as reduction in PGE2 level at 10 mg/kg, po pretreated for 1 hr followed by carrageenan challenge by ELISA relative to control; parameters: scale not given: the % may be the effect or the level left
Mus musculus [15] = test: Antiinflammatory activity in mouse assessed as inhibition of croton oil-induced ear edema at 0.5 mg/ear administered topically pretreated for 1 hr followed by croton oil addition and measured after 4 hrs relative to control; parameters: scale not given: the % may be the effect or the level left
Rattus norvegicus [16] = test: Anti-inflammatory activity against carrageenan-induced paw oedema in Wistar albino rat assessed as reduction in TNFalpha level at 10 mg/kg, po pretreated for 1 hr followed by carrageenan challenge by ELISA relative to control; parameters: scale not given: the % may be the effect or the level left
Rattus norvegicus [17] = test: Anti-inflammatory activity against carrageenan-induced paw oedema in Wistar albino rat assessed as hind paw thickness at 10 mg/kg, po pretreated for 1 hr followed by carrageenan challenge measured after 3 hrs by caliper method (reference value: 8.45 +/- 0.64 millimeter)
Rattus norvegicus [18] = test: Anti-inflammatory activity against carrageenan-induced paw oedema in Wistar albino rat assessed as hind paw thickness at 10 mg/kg, po pretreated for 1 hr followed by carrageenan challenge measured after 5 hrs by caliper method (reference value: 8.37 +/- 0.64 millimeter)

SMILES	Activity (Rattus norvegicus [1])	Activity (Rattus norvegicus [2])	Activity (Rattus norvegicus [3])	other results
O=C1/C(=C/c2ccc(F)cc2)CNCC12[C@@H](c1ccc(F)cc1)[C@@H]1CCCCN1[C@@]21C(=O)Nc2ccccc21 (some centres undefined)	3.62 mm	6.9 mm	7.18 mm	–
O=C1/C(=C/c2ccc(Cl)cc2)CNCC12[C@@H](c1ccc(Cl)cc1)[C@@H]1CCCCN1[C@@]21C(=O)Nc2ccccc21 (some centres undefined)	3.62 mm	8 mm	8.16 mm	–
Cc1ccc(/C=C2\CNCC3(C2=O)[C@@H](c2ccc(C)cc2)[C@@H]2CCCCN2[C@@]32C(=O)Nc3ccccc32)cc1 (some centres undefined)	3.55 mm	3.74 mm	3.87 mm	Activity (Rattus norvegicus [4]): 35.23%; Activity (Mus musculus [5]): 47.53 - 54.53%; Activity (Rattus norvegicus [6]): 54.07%; Activity (Rattus norvegicus [7]): 36.23%; Activity (Rattus norvegicus [8]): 42.99%; Activity (Rattus norvegicus [9]): 55.3%; Activity (Rattus norvegicus [10]): 24.17 - 33.23%
O=C1/C(=C/c2ccccc2Br)CNCC12[C@@H](c1ccccc1Br)[C@@H]1CCCCN1[C@@]21C(=O)Nc2ccccc21 (some centres undefined)	3.54 mm	6.2 mm	7 mm	–
COc1ccc(/C=C2\CNCC3(C2=O)[C@@H](c2ccc(OC)cc2)[C@@H]2CCCCN2[C@@]32C(=O)Nc3ccccc32)cc1 (some centres undefined)	3.58 mm	3.72 mm	3.75 mm	Activity (Rattus norvegicus [4]): 34.1%; Activity (Mus musculus [5]): 48.32 - 49.02%; Activity (Rattus norvegicus [6]): 55.61%; Activity (Rattus norvegicus [7]): 38.52%; Activity (Rattus norvegicus [8]): 41.22%; Activity (Rattus norvegicus [9]): 55.54%; Activity (Rattus norvegicus [10]): 32.48 - 37.21%
O=C1/C(=C/c2ccccc2F)CNCC12[C@@H](c1ccccc1F)[C@@H]1CCCCN1[C@@]21C(=O)Nc2ccccc21 (some centres undefined)	3.61 mm	6.13 mm	6.53 mm	–
Cc1ccccc1/C=C1\CNCC2(C1=O)[C@@H](c1ccccc1C)[C@@H]1CCCCN1[C@@]21C(=O)Nc2ccccc21 (some centres undefined)	3.63 mm	7.41 mm	7.5 mm	–
O=C1/C(=C/c2ccccc2Cl)CNCC12[C@@H](c1ccccc1Cl)[C@@H]1CCCCN1[C@@]21C(=O)Nc2ccccc21 (some centres undefined)	3.59 mm	7.18 mm	6.54 mm	–
O=C1/C(=C/c2ccc(Cl)cc2Cl)CNCC12[C@@H](c1ccc(Cl)cc1Cl)[C@@H]1CCCCN1[C@@]21C(=O)Nc2ccccc21 (some centres undefined)	3.59 mm	6.5 mm	7.12 mm	–
COc1cccc(/C=C2\CNCC3(C2=O)[C@@H](c2cccc(OC)c2)[C@@H]2CCCCN2[C@@]32C(=O)Nc3ccccc32)c1 (some centres undefined)	3.61 mm	7.62 mm	8.1 mm	–
COc1ccccc1/C=C1\CNCC2(C1=O)[C@@H](c1ccccc1OC)[C@@H]1CCCCN1[C@@]21C(=O)Nc2ccccc21 (some centres undefined)	3.67 mm	7 mm	6.31 mm	–
O=C1/C(=C/c2ccccc2)CNCC12[C@@H](c1ccccc1)[C@@H]1CCCCN1[C@@]21C(=O)Nc2ccccc21 (some centres undefined)	3.61 mm	6.98 mm	7.21 mm	–
O=C1/C(=C/c2ccc(Br)cc2)CNCC12[C@@H](c1ccc(Br)cc1)[C@@H]1CCCCN1[C@@]21C(=O)Nc2ccccc21 (some centres undefined)	3.58 mm	7.7 mm	7.62 mm	–
Cc1cccc(/C=C2\CNCC3(C2=O)[C@@H](c2cccc(C)c2)[C@@H]2CCCCN2[C@@]32C(=O)Nc3ccccc32)c1 (some centres undefined)	3.58 mm	7.82 mm	8.16 mm	–
COc1ccc2c(c1)c(CC(=O)O)c(C)n2C(=O)c1ccc(Cl)cc1 [INDOMETHACIN]	–	–	–	Activity (Rattus norvegicus [11]): 39.7%; Activity (Rattus norvegicus [12]): 41.64%; Activity (Rattus norvegicus [13]): 3.61 mm; Activity (Rattus norvegicus [14]): 33.88%; Activity (Mus musculus [15]): 53.56%; Activity (Rattus norvegicus [16]): 37.13%; Activity (Rattus norvegicus [17]): 3.86 mm; Activity (Rattus norvegicus [18]): 3.83 mm
